Like-named read-outs stand apart in the source and are kept apart here.

This experiment has as its target T1, Nanoluciferase-BRD9 fusion protein (3×FLAG-NLuc-BRD9) in SYO-1 cells (Homo sapiens, UniProt Q9H8M2).
T1 construct: expressed in transfected cells; host or cells: SYO-1
T1 sequence (Q9H8M2 1-597): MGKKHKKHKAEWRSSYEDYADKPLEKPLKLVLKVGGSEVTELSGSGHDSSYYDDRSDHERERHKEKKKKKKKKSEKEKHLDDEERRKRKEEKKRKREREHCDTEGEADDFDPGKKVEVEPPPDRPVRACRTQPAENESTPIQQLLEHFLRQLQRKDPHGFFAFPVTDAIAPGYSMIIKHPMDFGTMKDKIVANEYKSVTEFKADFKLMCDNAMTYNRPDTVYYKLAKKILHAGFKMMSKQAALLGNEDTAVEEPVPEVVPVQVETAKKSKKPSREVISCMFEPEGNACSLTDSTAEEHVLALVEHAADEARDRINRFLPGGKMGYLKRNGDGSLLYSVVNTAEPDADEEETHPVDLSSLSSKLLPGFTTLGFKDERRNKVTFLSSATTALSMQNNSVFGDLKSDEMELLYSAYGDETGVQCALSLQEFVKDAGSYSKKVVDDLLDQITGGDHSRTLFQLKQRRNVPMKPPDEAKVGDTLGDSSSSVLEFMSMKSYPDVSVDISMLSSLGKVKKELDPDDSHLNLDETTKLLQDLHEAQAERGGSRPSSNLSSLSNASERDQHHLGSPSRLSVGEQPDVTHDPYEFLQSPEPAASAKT
Description: SYO1 BRD9 NanoLuc Degradation Assay. Format: cell-based. Particulars: SYO-1 cells expressing 3×FLAG-NLuc-BRD9, 6 hours incubation, 1 μM top dose, read-out: SYO1 BRD9-NanoLuc degradation IC50. How it is done: Procedure: A stable SYO-1 cell line expressing 3×FLAG-NLuc-BRD9 was generated. On day 0 cells were seeded in 30 μL media into each well of 384-well cell culture plates. The seeding density was 8000 cells/well. On day 1, cells were treated with 30 nL DMSO or 30 nL of 3-fold serially DMSO-diluted compounds (10 points in duplicates with 1 μM as final top dose). Subsequently plates were incubated for 6 hours in a standard tissue culture incubator and equilibrated at room temperature for 15 minutes. Nanoluciferase activity was measured by adding 15 μL of freshly prepared Nano-Glo Luciferase Assay Reagent (Promega N1130), shaking the plates for 10 minutes and reading the bioluminescence using an EnVision reader.
Results: The Inhibition % was calculated using the following formula: % Inhibition=100×(LumHC−Lumsample)/(LumHC−LumLC). DMSO treated cells are employed as High Control (HC) and 1 μM of a known BRD9 degrader standard treated cells are employed as Low Control (LC).

On to `COc1cc(-c2cn(C)c(=O)c3cnc(N4CC[C@H]4C)cc23)cc(OC)c1CN1CCC(CN2CCC3(CC2)CN(c2ccc4c(c2)C(=O)N(C2CCC(=O)NC2=O)C4)C3)CC1` (some centres unmarked) [Compound D208], for which the DC50 (Table 6C) is less than 10 nM. As for `COc1cc(-c2cn(C)c(=O)c3cnc(C4(C)CC4)cc23)cc(OC)c1CN1CC(Oc2ccc3c(c2)C(=O)N(C2CCC(=O)NC2=O)C3=O)C1` (centres unmarked) [Compound D229], the DC50 (Table 6C) was less than 10 nM. On to `COc1cc(-c2cn(C)c(=O)c3cnc(N(C)C)cc23)cc(OC)c1CN1CCC(C(C)N2CCC3(CC2)CC(Oc2ccc4c(c2)C(=O)N(C2CCC(=O)NC2=O)C4=O)C3)CC1` (centres unmarked) [Compound D75], for which, where the note is “Table 6B”, the DC50 is less than 10 nM. Turning to `COCC1CN(CCC2CCN(c3ccc4c(c3)C(=O)N(C3CCC(=O)NC3=O)C4=O)CC2)CCN1Cc1c(OC)cc(-c2cn(C)c(=O)c3cnc(N4CCC4)cc23)cc1OC` (centres unmarked) [Compound D215], for the setting “Table 6C”, the DC50 was less than 10 nM. `CCc1cc(-c2cn(C)c(=O)c3cnc(N(C)C)cc23)cc(OC)c1CN1CCC(CN2CCC3(CC2)CC(Oc2ccc4c(c2)C(=O)N(C2CCC(=O)NC2=O)C4=O)C3)CC1` (centres unmarked) [Compound D112]: the DC50 (Table 6B) is less than 10 nM. For `COc1cc(-c2cn(C)c(=O)c3cnc(N(C)C)cc23)cc(OC)c1CN1CCN(C(C)(C)COc2cccc3c2C(=O)N(C2CCC(=O)NC2=O)C3=O)CC1` (centres unmarked) [Compound D81], the DC50 (Table 6B) was less than 10 nM.

Take `COc1cc(-c2cn(C)c(=O)c3cnc(C4CC4)cc23)cc(OC)c1CN1CC(C#Cc2ccc3c(c2)CN(C2CCC(=O)NC2=O)C3=O)C1` (centres unmarked) [Compound D271]: the DC50 (Table 6C) was less than 10 nM.

`COc1cc(-c2cn(C)c(=O)c3cnc(S(N)(=O)=O)cc23)cc(OC)c1CN1CCC(CN2CCC3(CC2)CC(Oc2ccc4c(c2)C(=O)N(C2CCC(=O)NC2=O)C4)C3)CC1` (centres unmarked) [Compound D188]: where the note is “Table 6C”, the DC50 was less than 10 nM. For `COc1cc(-c2cn(C)c(=O)c3cnc(N(C)C)cc23)cc(OC)c1CN1CC(C(C)N2CCC3(CC2)CN(c2ccc4c(c2)C(=O)N(C2CCC(=O)NC2=O)C4=O)C3)C1` (centres unmarked) [Compound D110], the DC50 (Table 6B) was less than 10 nM.

`COc1cc(-c2cn(C)c(=O)c3cnc(N(C)C)cc23)cc(OC)c1CN(C)CC12CC(C(=O)NCCCCCOc3ccc4c(c3)C(=O)N(C3CCC(=O)NC3=O)C4=O)(C1)C2` (centres unmarked) [Compound D38]: the DC50 (Table 6B) is less than 10 nM. Turning to `COc1cc(-c2cn(C)c(=O)c3cnc(N(C)C)cc23)cc(OC)c1CN1CCC(c2ccc3c(c2)CN(C2CCC(=O)NC2=O)C3=O)CC1` (centres unmarked) [Compound D297], where the note is “Table 6C”, the DC50 was less than 10 nM. Take `COc1cc(-c2cn(C)c(=O)c3cnc(N(C)C)cc23)cc(F)c1CN1CCC(CCN2CCN(c3ccc4c(c3)C(=O)N(C3CCC(=O)NC3=O)C4=O)CC2)CC1` (centres unmarked) [Compound D41]: the DC50 (Table 6B) is less than 10 nM. For `COc1cc(-c2cn(C)c(=O)c3cnc(N(C)C)cc23)cc(OC)c1CN1CCC2C(C1)CN2c1ccc2c(c1)C(=O)N(C1CCC(=O)NC1=O)C2=O` (centres unmarked) [Compound D93], the DC50 (Table 6B) was less than 10 nM.

Regarding `COc1cc(-c2cn(C)c(=O)c3cnc(C(F)(F)F)cc23)cc(OC)c1CN1CCN(CCC2CCN(c3ccc4c(c3)CN(C3CCC(=O)NC3=O)C4=O)CC2)CC1` (centres unmarked) [Compound D309], the DC50 (Table 6C) is less than 10 nM. For the compound `COc1cc(-c2cn(C)c(=O)c3cnc(N(C)C)cc23)cc(OC)c1CN1CC2(CCN(C(C)(C)C#Cc3ccc4c(c3)C(=O)N(C3CCC(=O)NC3=O)C4=O)CC2)C1` (centres unmarked) [Compound D73], the DC50 (Table 6B) was less than 10 nM. Consider `COc1cc(-c2cn(C)c(=O)c3cnc(N(C)C)cc23)cc(Cl)c1C(=O)N1CCN(CCC2CCN(c3ccc4c(c3)CN(C3CCC(=O)NC3=O)C4=O)CC2)CC1` (centres unmarked) [Compound D189], for which, under “Table 6C”, the DC50 is less than 10 nM. As for `COc1cc(N(C)C2CCN(c3ccc4c(c3)C(=O)N(C3CCC(=O)NC3=O)C4)CC2)c(OC)cc1-c1cn(C)c(=O)c2cnc(N(C)C)cc12` (centres unmarked) [Compound D279], where the note is “Table 6C”, the DC50 is less than 10 nM. `COc1cc(-c2cn(C)c(=O)c3ccc(N4CCC4)cc23)cc(OC)c1CN1CCC(C2CCN(c3ccc4c(c3)CN(C3CCC(=O)NC3=O)C4=O)CC2)CC1` (centres unmarked) [Compound D181]: under “Table 6B”, the DC50 was not below 1000 nM. On to `COc1cc(-c2cn(C)c(=O)c3cnc(N(C)C)cc23)cc(OC)c1CN1CCC(C(C)(C)N2CCC3(CC2)CC(Oc2ccc4c(c2)C(=O)N(C2CCC(=O)NC2=O)C4=O)C3)CC1` (centres unmarked) [Compound D108], for which, for the setting “Table 6B”, the DC50 was less than 10 nM. The same measure, in the same setting: as for `COc1cc(-c2cn(C)c(=O)c3cnc(N(C)C)cc23)cc(OC)c1CN(C)CC12CC(C(=O)NCCCCCNc3cccc4c3C(=O)N(C3CCC(=O)NC3=O)C4=O)(C1)C2` (centres unmarked) [Compound D35], the figure is less than 10 nM. On to `COc1cc(-c2cn(C)c(=O)c3cnc(N(C)C)cc23)cc(OC)c1CN1CCC(C#Cc2ccc3c(c2)C(=O)N(C2CCC(=O)NC2=O)C3=O)CC1` (centres unmarked) [Compound D273], for which the DC50 (Table 6C) was less than 10 nM. On to `COc1cc(-c2cn(C)c(=O)c3cnc(N(C)C)cc23)cc(OC)c1CN1CCC(N2CCN(c3ccc4c(c3)C(=O)N(C3CCC(=O)NC3=O)C4=O)CC2)CC1` (centres unmarked) [Compound D52], for which the DC50 (Table 6B) is less than 10 nM. On to `COc1cc2c(-c3cc(OC)c(CN4CCC(c5ccc6c(c5)C(=O)N(C5CCC(=O)NC5=O)C6)CC4)c(OC)c3)cn(C)c(=O)c2cn1` (centres unmarked) [Compound D288], for which, under “Table 6C”, the DC50 was less than 10 nM. As for `COc1cc2c(-c3cc(OC)c(CN4CCN(c5ccc6c(c5)C(=O)N(C5CCC(=O)NC5=O)C6)CC4)c(OC)c3)cn(C)c(=O)c2cn1` (centres unmarked) [Compound D217], the DC50 (Table 6C) is less than 10 nM.

Turning to `COc1cc(-c2cn(C)c(=O)c3cnc(C(C)(C)CO)cc23)cc(OC)c1CN1CCC(CN2CCC3(CC2)CC(Oc2ccc4c(c2)C(=O)N(C2CCC(=O)NC2=O)C4)C3)CC1` (centres unmarked) [Compound D190], the DC50 (Table 6C) is less than 10 nM. Same read-out and setting: as for `COc1cc(-c2cn(C)c(=O)c3cnc(C4COC4)cc23)cc(OC)c1CN1CCN(CCC2CCN(c3ccc4c(c3)C(=O)N(C3CCC(=O)NC3=O)C4=O)CC2)CC1` (centres unmarked) [Compound D308], the figure is less than 10 nM. For `COc1cc(-c2cn(C)c(=O)c3cnc(N4CCC4)cc23)cc(OC)c1CN1CCC(N2CCN(c3ccc4c(c3)CN(C3CCC(=O)NC3=O)C4=O)CC2)CC1` (centres unmarked) [Compound D131], the DC50 (Table 6B) was less than 10 nM. In the case of `COc1cc(-c2cn(C)c(=O)c3cnc(N(C)C)cc23)cc(OC)c1CN1Cc2cc3c(cc2C1)C(=O)N(C1CCC(=O)NC1=O)C3=O` (centres unmarked) [Compound D86], for the setting “Table 6B”, the DC50 is less than 10 nM. Still for that read-out and setting: as for `COc1cc(-c2cn(C)c(=O)c3cnc(N(C)C)cc23)cc(OC)c1CN1CCN(c2ccc3c(c2)C(=O)N(C2CCC(=O)NC2=O)C3=O)CC1` (centres unmarked) [Compound D70], the figure is less than 10 nM; as for `COc1cc(-c2cn(C)c(=O)c3cnc(N4CCOCC4)cc23)cc(OC)c1CN1CCC(CN2CCC3(CC2)CC(Oc2ccc4c(c2)C(=O)N(C2CCC(=O)NC2=O)C4=O)C3)CC1` (centres unmarked) [Compound D178], less than 10 nM. As for `COc1cc(-c2cn(C)c(=O)c3cnc(N4CCC4)c(F)c23)cc(OC)c1CN1CC(CN2CCC3(CC2)CN(c2ccc4c(c2)C(=O)N(C2CCC(=O)NC2=O)C4)C3)C1` (centres unmarked) [Compound D221], the DC50 (Table 6C) is less than 10 nM. Same read-out and setting: as for `COc1cc(-c2cn(C)c(=O)c3cnc(N4CCC4)cc23)cc(OC)c1CN1CC(CN2CCC3(CC2)CN(c2ccc4c(c2)C(=O)N(C2CCC(=O)NC2=O)C4)C3)C1` (centres unmarked) [Compound D311], the figure is less than 10 nM; as for `COc1cc(-c2cn(C)c(=O)c3cnc(N(C)C)cc23)cc(OC)c1CCN1CCC(CN2CCC3(CC2)CC(Oc2ccc4c(c2)C(=O)N(C2CCC(=O)NC2=O)C4)C3)CC1` (centres unmarked) [Compound D298], less than 10 nM. For the compound `COc1cc(-c2cn(C)c(=O)c3cnc(N(C)C)cc23)cc(OC)c1CN1CCC(CN2CCC3(CC2)CC(Oc2ccc4c(c2)C(=O)N(C2CCC(=O)NC2=O)C4)C3)CC1` (centres unmarked) [Compound D107], for the setting “Table 6B”, the DC50 was less than 10 nM.

With `COc1cc(-c2cn(C)c(=O)c3cnc(N(C)C)cc23)cc(OC)c1CN1CCC2(CC1)CN(c1ccc3c(c1)C(=O)N(C1CCC(=O)NC1=O)C3=O)C2` (centres unmarked) [Compound D68], the DC50 (Table 6B) is less than 10 nM. As to `CCc1cc(-c2cn(C)c(=O)c3cnc(N(C)C)cc23)cc(OC)c1CN1CCC(CN2CCC3(CC2)CC(Oc2ccc4c(c2)C(=O)N(C2CCC(=O)NC2=O)C4=O)C3)CC1` (centres unmarked) [Compound D174], the DC50 (Table 6B) was less than 10 nM.

In the case of `COc1cc(-c2cn(C)c(=O)c3cnc(C4CC4)cc23)cc(OC)c1CN1CCC(C#Cc2ccc3c(c2)C(=O)N(C2CCC(=O)NC2=O)C3)CC1` (centres unmarked) [Compound D269], the DC50 (Table 6C) was less than 10 nM. Consider `COc1cc(-c2cn(C)c(=O)c3cnc(N4CCC4)cc23)cc(OC)c1CN1[C@H](C)CN(CCC2CCN(c3ccc4c(c3)C(=O)N(C3CCC(=O)NC3=O)C4=O)CC2)C[C@H]1C` (some centres unmarked) [Compound D222], for which the DC50 (Table 6C) was less than 10 nM.

(Values after patent US12391686B2, “Compounds and uses thereof” (Foghorn Therapeutics Inc., priority 2019, dated 2025).)
